Measured values reported in patent US20130245081A1, “Compositions and Methods for Treating Amyotrophic Lateral Sclerosis” (priority 2009, published 2013).
“And” between values parts separate entries of the source, which are not always exact repeats. Equal values may be shown once. Read-outs that look alike come from different tables or passages of the source.

What was measured:
[1] = tested on: patients with ALS; details: for subjects who died (incl. after discontinuation): double-blind period through Week 28; for total number of deaths: first 24-week randomized active treatment period
[2] = clinical; details: human, in vivo
Description: Pharmacokinetic analyses were based on data from 20 subjects in the 25 mg Q12H (n=8), 75 mg Q12H (n=8), and 150 mg Q12H (n=4) groups.

CCCN[C@@H]1CCc2nc(N)sc2C1 [dexpramipexole, (6R)-2-amino-4,5,6,7-tetrahydro-6-(propylamino)benzothiazole]
Unadjusted Slope Estimate, Bulbar ([1]; 50 mg): −0.364
Unadjusted Slope Estimate, Fine ([1]; 50 mg): −0.311
Unadjusted Slope Estimate, Gross ([1]; 50 mg): −0.305
Unadjusted Slope Estimate, Resp ([1]; 50 mg): −0.270
Zero Imputation Slope Estimate, Bulbar ([1]; 50 mg): −0.578
Zero Imputation Slope Estimate, Fine ([1]; 50 mg): −0.440
Zero Imputation Slope Estimate, Gross ([1]; 50 mg): −0.390
Zero Imputation Slope Estimate, Resp ([1]; 50 mg): −0.575
joint rank test of survival and ALSFRS-R (generalized Gehan Wilcoxon test) ([1]; 50 mg versus 300 mg, through Week 28, p=0.046): statistically significant difference
McGill SIS, Mean (SE) ([1]; 50 mg, Endpoint of Part 2): 5.9 (0.38)
McGill SIS, Mean Δ (SE) from baseline ([1]; 50 mg, Endpoint of Part 2): −0.5 (0.27)
McGill SIS, Median Δ ([1]; 50 mg, Endpoint of Part 2): 0.0
Upright Vital Capacity, Mean (SE) ([1]; 50 mg, Endpoint of Part 2): 62.2 (4.19) % predicted
Upright Vital Capacity, Mean Δ (SE) from baseline of Part 2 ([1]; 50 mg, Endpoint of Part 2): −14.6 (3.54) % predicted
Upright Vital Capacity, Median Δ ([1]; 50 mg, Endpoint of Part 2): −11.5 % predicted
McGill SIS, Mean (SE) ([1]; 50 mg, Week 8): 6.2 (0.37)
McGill SIS, Mean Δ (SE) from baseline ([1]; 50 mg, Week 8): −0.2 (0.19)
McGill SIS, Median Δ ([1]; 50 mg, Week 8): 0.0
Upright Vital Capacity, Mean (SE) ([1]; 50 mg, Week 8): 73.7 (2.92) % predicted
Upright Vital Capacity, Mean Δ (SE) from baseline of Part 2 ([1]; 50 mg, Week 8): −3.2 (1.67) % predicted
Upright Vital Capacity, Median Δ ([1]; 50 mg, Week 8): −1.9 % predicted
McGill SIS, Mean (SE) ([1]; 50 mg, Week 12): 6.5 (0.34)
McGill SIS, Mean Δ (SE) from baseline ([1]; 50 mg, Week 12): −0.1 (0.20)
McGill SIS, Median Δ ([1]; 50 mg, Week 12): 0.0
Upright Vital Capacity, Mean (SE) ([1]; 50 mg, Week 12): 72.9 (3.82) % predicted
Upright Vital Capacity, Mean Δ (SE) from baseline of Part 2 ([1]; 50 mg, Week 12): −4.0 (2.19) % predicted
Upright Vital Capacity, Median Δ ([1]; 50 mg, Week 12): −3.1 % predicted
McGill SIS, Mean (SE) ([1]; 50 mg, Week 16): 6.1 (0.37)
McGill SIS, Mean Δ (SE) from baseline ([1]; 50 mg, Week 16): −0.3 (0.22)
McGill SIS, Median Δ ([1]; 50 mg, Week 16): 0.0
McGill SIS, Mean (SE) ([1]; 50 mg, Week 20): 6.1 (0.33)
McGill SIS, Mean Δ (SE) from baseline ([1]; 50 mg, Week 20): −0.7 (0.22)
McGill SIS, Median Δ ([1]; 50 mg, Week 20): −1.0
Upright Vital Capacity, Mean (SE) ([1]; 50 mg, Week 20): 75.8 (4.02) % predicted
Upright Vital Capacity, Mean Δ (SE) from baseline of Part 2 ([1]; 50 mg, Week 20): −6.0 (3.36) % predicted
Upright Vital Capacity, Median Δ ([1]; 50 mg, Week 20): −7.2 % predicted
McGill SIS, Mean (SE) ([1]; 50 mg, Week 24): 6.3 (0.43)
McGill SIS, Mean Δ (SE) from baseline ([1]; 50 mg, Week 24): −0.4 (0.23)
McGill SIS, Median Δ ([1]; 50 mg, Week 24): 0.0
McGill SIS, Mean (SE) ([1]; 50 mg, Week 28): 5.9 (0.45)
McGill SIS, Mean Δ (SE) from baseline ([1]; 50 mg, Week 28): −0.7 (0.23)
McGill SIS, Median Δ ([1]; 50 mg, Week 28): 0.0
Upright Vital Capacity, Mean (SE) ([1]; 50 mg, Week 28): 69.5 (3.79) % predicted
Upright Vital Capacity, Mean Δ (SE) from baseline of Part 2 ([1]; 50 mg, Week 28): −12.4 % predicted and −12.4 (3.00) % predicted
Upright Vital Capacity, Median Δ ([1]; 50 mg, Week 28): −10.4 % predicted
decline in ALSFRS-R scores (repeated measures mixed effect model) ([1]; 50 mg, Week 28): −7.05
subjects who died (incl. after discontinuation) ([1]; 50 mg): 9 (19%) N (%) and 9 N (%)
total number of deaths ([1]; 50 mg): 7
did not require tracheostomy and did not die ([1]; 50 mg, through Week 28): 81%
mean change from baseline in ALSFRS-R total score ([1]; 50 mg, through Week 28): −6.5
slope estimate of ALSFRS-R scores (linear mixed effects model) ([1]; 50 mg, through Week 28): −1.283
slope of ALSFRS-R total scores, zero imputed for first post-death visit ([1]; 50 mg, through Week 28): −2.05
slope of upright vital capacity (linear mixed effects, unadjusted) ([1]; 50 mg, through Week 28): −2.452
subjects with feeding tubes placed ([1]; 50 mg, through Week 28): 9 (19%) N (%)
Unadjusted Slope Estimate, Bulbar ([1]; 300 mg): −0.310
Unadjusted Slope Estimate, Fine ([1]; 300 mg): −0.211
Unadjusted Slope Estimate, Gross ([1]; 300 mg): −0.320
Unadjusted Slope Estimate, Resp ([1]; 300 mg): −0.186
Zero Imputation Slope Estimate, Bulbar ([1]; 300 mg): −0.376
Zero Imputation Slope Estimate, Fine ([1]; 300 mg): −0.238
Zero Imputation Slope Estimate, Gross ([1]; 300 mg): −0.338
Zero Imputation Slope Estimate, Resp ([1]; 300 mg): −0.255
attenuation of decline in vital capacity (adjusted slopes) ([1]; 300 mg compared with 50 mg): 21% and 18%
Unadjusted Slope Estimate, Bulbar, % reduction ([1]; 300 mg vs 50 mg): 14.84%
Unadjusted Slope Estimate, Fine, % reduction ([1]; 300 mg vs 50 mg): 32.15%
Unadjusted Slope Estimate, Gross, % reduction ([1]; 300 mg vs 50 mg): −4.92%
Unadjusted Slope Estimate, Resp, % reduction ([1]; 300 mg vs 50 mg): 31.11%
Zero Imputation Slope Estimate, Bulbar, % reduction ([1]; 300 mg vs 50 mg): 34.95%
Zero Imputation Slope Estimate, Fine, % reduction ([1]; 300 mg vs 50 mg): 45.91%
Zero Imputation Slope Estimate, Gross, % reduction ([1]; 300 mg vs 50 mg): 13.33%
Zero Imputation Slope Estimate, Resp, % reduction ([1]; 300 mg vs 50 mg): 55.65%
reduction in decline of ALSFRS-R slope, zero imputation ([1]; 300 mg vs 50 mg): 42%
smaller decline in ALSFRS-R scores (repeated measures model) ([1]; 300 mg vs 50 mg, Week 28): 19.7%
McGill SIS, Mean (SE) ([1]; 300 mg, Endpoint of Part 2): 6.1 (0.35)
McGill SIS, Mean Δ (SE) from baseline ([1]; 300 mg, Endpoint of Part 2): −0.8 (0.30)
McGill SIS, Median Δ ([1]; 300 mg, Endpoint of Part 2): −1.0
Upright Vital Capacity, Mean (SE) ([1]; 300 mg, Endpoint of Part 2): 61.1 (3.94) % predicted
Upright Vital Capacity, Mean Δ (SE) from baseline of Part 2 ([1]; 300 mg, Endpoint of Part 2): −20.3 (2.88) % predicted
Upright Vital Capacity, Median Δ ([1]; 300 mg, Endpoint of Part 2): −14.3 % predicted
McGill SIS, Mean (SE) ([1]; 300 mg, Week 8): 6.9 (0.32)
McGill SIS, Median Δ ([1]; 300 mg, Week 8): 0.0
Upright Vital Capacity, Mean (SE) ([1]; 300 mg, Week 8): 80.3 (3.20) % predicted
Upright Vital Capacity, Mean Δ (SE) from baseline of Part 2 ([1]; 300 mg, Week 8): −1.4 (0.91) % predicted
Upright Vital Capacity, Median Δ ([1]; 300 mg, Week 8): −0.8 % predicted
McGill SIS, Mean (SE) ([1]; 300 mg, Week 12): 6.5 (0.37)
McGill SIS, Mean Δ (SE) from baseline ([1]; 300 mg, Week 12): −0.4 (0.25)
McGill SIS, Median Δ ([1]; 300 mg, Week 12): 0.0
Upright Vital Capacity, Mean (SE) ([1]; 300 mg, Week 12): 78.5 (3.34) % predicted
Upright Vital Capacity, Mean Δ (SE) from baseline of Part 2 ([1]; 300 mg, Week 12): −4.2 (1.91) % predicted
Upright Vital Capacity, Median Δ ([1]; 300 mg, Week 12): −4.3 % predicted
McGill SIS, Mean (SE) ([1]; 300 mg, Week 16): 6.4 (0.33)
McGill SIS, Mean Δ (SE) from baseline ([1]; 300 mg, Week 16): −0.4 (0.23)
McGill SIS, Median Δ ([1]; 300 mg, Week 16): 0.0
McGill SIS, Mean (SE) ([1]; 300 mg, Week 20): 6.4 (0.34)
McGill SIS, Mean Δ (SE) from baseline ([1]; 300 mg, Week 20): −0.5 (0.30)
McGill SIS, Median Δ ([1]; 300 mg, Week 20): 0.0
Upright Vital Capacity, Mean (SE) ([1]; 300 mg, Week 20): 70.8 (3.77) % predicted
Upright Vital Capacity, Mean Δ (SE) from baseline of Part 2 ([1]; 300 mg, Week 20): −10.6 (1.58) % predicted
Upright Vital Capacity, Median Δ ([1]; 300 mg, Week 20): −9.0 % predicted
McGill SIS, Mean (SE) ([1]; 300 mg, Week 24): 6.3 (0.36)
McGill SIS, Mean Δ (SE) from baseline ([1]; 300 mg, Week 24): −0.7 (0.30)
McGill SIS, Median Δ ([1]; 300 mg, Week 24): 0.0
McGill SIS, Mean (SE) ([1]; 300 mg, Week 28): 6.0 (0.38)
McGill SIS, Mean Δ (SE) from baseline ([1]; 300 mg, Week 28): −0.9 (0.31)
McGill SIS, Median Δ ([1]; 300 mg, Week 28): −1.0
Upright Vital Capacity, Mean (SE) ([1]; 300 mg, Week 28): 67.3 (4.44) % predicted
Upright Vital Capacity, Mean Δ (SE) from baseline of Part 2 ([1]; 300 mg, Week 28): −15.1 % predicted and −15.1 (2.63) % predicted
Upright Vital Capacity, Median Δ ([1]; 300 mg, Week 28): −11.5 % predicted
decline in ALSFRS-R scores (repeated measures mixed effect model) ([1]; 300 mg, Week 28): −5.66
subjects who died (incl. after discontinuation) ([1]; 300 mg): 3 (7%) N (%) and 3 N (%)
total number of deaths ([1]; 300 mg): 2
did not require tracheostomy and did not die ([1]; 300 mg, through Week 28): 93%
mean change from baseline in ALSFRS-R total score ([1]; 300 mg, through Week 28): −6.2
slope estimate of ALSFRS-R scores (linear mixed effects model) ([1]; 300 mg, through Week 28): −1.021
slope of ALSFRS-R total scores, zero imputed for first post-death visit ([1]; 300 mg, through Week 28): −1.19
slope of upright vital capacity (linear mixed effects, unadjusted) ([1]; 300 mg, through Week 28): −3.067
subjects with feeding tubes placed ([1]; 300 mg, through Week 28): 6 (14%) N (%)
dose linearity of pharmacokinetics [2]: linear
Tmax ([2]; 25 mg): 1.77 h
Tmax ([2]; 75 mg): 1.82 h
Tmax ([2]; 150 mg): 1.7 h
half-life ([2]; 150 mg): 6.63 to 8.73 h
